Reference: ChEMBL document CHEMBL1201862, “PubChem BioAssay data set” (2004)
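Growth conditions: 96-well plates. Treatment: test compound, 48 hours, 5 concentrations. Analysis: linear interpolation between bracketing concentrations; unreached endpoints set to highest concentration. Abbreviation: GI50, concentration required for 50% inhibition of growth.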 Calls of active or inactive are those of the source. Cut-off read from the data, not from the text of the source: active = GI50 up to about 1.1 µM and inactive = higher.

What was measured:
Experiment in all cases: DTP human tumour cell line panel, 48 h
EKVX = test system: EKVX
SF-295 = test system: SF-295
OVCAR-3 = test system: OVCAR-3
K562 = test system: K562
RPMI-8226 = test system: RPMI-8226
BT-549 = test system: BT-549
NCI-H23 = test system: NCI-H23
OVCAR-8 = test system: OVCAR-8
HL-60 = test system: HL-60
UACC-257 = test system: UACC-257
HCC 2998 = test system: HCC 2998
SNB-75 = test system: SNB-75
TK-10 = test system: TK-10
UO-31 = test system: UO-31
U-251 = test system: U-251
COLO 205 = test system: COLO 205
MDA-N = test system: MDA-N
SF-268 = test system: SF-268
LOX IMVI = test system: LOX IMVI
OVCAR-4 = test system: OVCAR-4

SMILES	GI50 (EKVX)	GI50 (SF-295)	GI50 (OVCAR-3)	GI50 (K562)	GI50 (RPMI-8226)	GI50 (BT-549)	GI50 (NCI-H23)	GI50 (OVCAR-8)	GI50 (HL-60)	GI50 (UACC-257)	GI50 (HCC 2998)	GI50 (SNB-75)	GI50 (TK-10)	GI50 (UO-31)	GI50 (U-251)	GI50 (COLO 205)	GI50 (MDA-N)	GI50 (SF-268)	GI50 (LOX IMVI)	GI50 (OVCAR-4)
S=c1sc2c(s1)SCCCCSCCCCSc1sc(=S)sc1SCCCCSCCCCS2	> 100 µM (inactive)	> 100 µM (inactive)	> 100 µM (inactive)	> 100 µM (inactive)	> 100 µM (inactive)	> 100 µM (inactive)	> 100 µM (inactive)	> 100 µM (inactive)	> 100 µM (inactive)	> 100 µM (inactive)	> 100 µM (inactive)	18.6 µM (inactive)	> 100 µM (inactive)	> 100 µM (inactive)	> 100 µM (inactive)	> 100 µM (inactive)	> 100 µM (inactive)	93.1 µM (inactive)	> 100 µM (inactive)	
CNNC1=NS(=O)(=O)c2cc(C(=O)OC)c(Cl)cc2S1	> 10 µM (inactive)	> 10 µM (inactive)	> 10 µM (inactive)	> 10 µM (inactive)	> 10 µM (inactive)	> 10 µM (inactive)	> 10 µM (inactive)	> 10 µM (inactive)	> 10 µM (inactive)	> 10 µM (inactive)	> 10 µM (inactive)	> 10 µM (inactive)	> 10 µM (inactive)	0.001 µM (active)	> 10 µM (inactive)	> 10 µM (inactive)	> 10 µM (inactive)	> 10 µM (inactive)	> 10 µM (inactive)	> 10 µM (inactive)
COc1cc(C2(O)c3ccccc3C3=NCCN32)cc(OC)c1OC (stereo not drawn)		> 100 µM (inactive)	> 100 µM (inactive)	> 100 µM (inactive)	> 100 µM (inactive)	> 100 µM (inactive)	> 100 µM (inactive)		> 100 µM (inactive)	> 100 µM (inactive)	> 100 µM (inactive)	> 100 µM (inactive)	> 100 µM (inactive)	> 100 µM (inactive)	> 100 µM (inactive)	> 100 µM (inactive)	> 100 µM (inactive)	> 100 µM (inactive)	> 100 µM (inactive)	> 100 µM (inactive)
Oc1ccc(/C=C/c2cccc(/C=C/c3ccc(O)c(O)c3)n2)cc1O	11.7 µM (inactive)	18.6 µM (inactive)	4.05 µM (inactive)	3.86 µM (inactive)	3.76 µM (inactive)	10.9 µM (inactive)		6.81 µM (inactive)	2.82 µM (inactive)	13.9 µM (inactive)	16.5 µM (inactive)	6.01 µM (inactive)	11.4 µM (inactive)	3.85 µM (inactive)	3.85 µM (inactive)	14.2 µM (inactive)	7.53 µM (inactive)	10.7 µM (inactive)	5.14 µM (inactive)	6.04 µM (inactive)
CN(C)c1ccc(/N=C2/C=CC(=C(C#N)C#N)c3ccccc32)cc1	0.955 µM (active)	0.291 µM (active)	0.118 µM (active)	0.0723 µM (active)	0.122 µM (active)	0.828 µM (active)	0.259 µM (active)	0.213 µM (active)	0.0541 µM (active)	1.49 µM (inactive)	0.244 µM (active)	0.363 µM (active)	1.82 µM (inactive)	0.893 µM (active)	0.333 µM (active)	0.0957 µM (active)	0.0365 µM (active)	0.38 µM (active)	0.282 µM (active)	0.906 µM (active)
C/C(=N/NC(=S)N1CCCCCC1)c1ccccc1O	14.9 µM (inactive)	4.8 µM (inactive)	1.38 µM (inactive)	3.31 µM (inactive)	2.48 µM (inactive)	8.97 µM (inactive)	14 µM (inactive)	2.81 µM (inactive)	2.25 µM (inactive)	4.6 µM (inactive)	7.4 µM (inactive)	16.4 µM (inactive)	3.58 µM (inactive)	2.62 µM (inactive)	1.87 µM (inactive)	7.98 µM (inactive)	13.6 µM (inactive)	3.03 µM (inactive)	2.07 µM (inactive)	6.98 µM (inactive)
Cc1cccc(C)c1/N=N/c1ccc(O)c(CN(C)C)c1	> 100 µM (inactive)	71.6 µM (inactive)	45.3 µM (inactive)	28.6 µM (inactive)	29 µM (inactive)	56.5 µM (inactive)	60.1 µM (inactive)	> 100 µM (inactive)	26.9 µM (inactive)	32.7 µM (inactive)	19.9 µM (inactive)	75.3 µM (inactive)	59.6 µM (inactive)	15.6 µM (inactive)	> 100 µM (inactive)	22.3 µM (inactive)	50.8 µM (inactive)	47 µM (inactive)	36.5 µM (inactive)	47.9 µM (inactive)
ClC1(Cl)C2CCOC21n1cnc2ccccc21 (stereo not drawn)	> 100 µM (inactive)	> 100 µM (inactive)	> 100 µM (inactive)	> 100 µM (inactive)	> 100 µM (inactive)	> 100 µM (inactive)	45 µM (inactive)	> 100 µM (inactive)	> 100 µM (inactive)		> 100 µM (inactive)	> 100 µM (inactive)		53.8 µM (inactive)	> 100 µM (inactive)	> 100 µM (inactive)	> 100 µM (inactive)	> 100 µM (inactive)	98.2 µM (inactive)	67.3 µM (inactive)
CCOC(=O)c1c(-c2ccc(Cl)cc2)c(C#N)c(=S)n(C2OC(CO)C(O)C(O)C2O)c1-c1ccccc1 (stereo not drawn)		20.4 µM (inactive)	21.3 µM (inactive)	19.5 µM (inactive)	34.7 µM (inactive)	29.4 µM (inactive)	30.3 µM (inactive)		> 10 µM (inactive)	27.5 µM (inactive)	28.9 µM (inactive)	27.9 µM (inactive)	33.8 µM (inactive)	38 µM (inactive)	17 µM (inactive)	30.1 µM (inactive)	23 µM (inactive)	28.1 µM (inactive)	14.6 µM (inactive)	33.5 µM (inactive)
O=C1c2ccccc2C2C1C(c1ccccc1)C1(Cc3ccccc3C1=O)C2c1ccccc1 (stereo not drawn)	> 100 µM (inactive)	> 29.6 µM (inactive)	> 100 µM (inactive)	5.53 µM (inactive)		> 100 µM (inactive)	> 100 µM (inactive)	> 100 µM (inactive)	3.67 µM (inactive)	> 100 µM (inactive)	> 46.8 µM (inactive)	30.4 µM (inactive)	> 100 µM (inactive)	> 29.8 µM (inactive)	> 100 µM (inactive)	> 100 µM (inactive)	4.28 µM (inactive)	> 100 µM (inactive)	21.6 µM (inactive)	> 100 µM (inactive)
Cc1cc(-n2nnc(C(=O)O)c2-c2ccccc2)c2ccc(Cl)cc2n1	> 100 µM (inactive)	> 100 µM (inactive)	> 100 µM (inactive)	58.1 µM (inactive)		> 100 µM (inactive)	> 100 µM (inactive)	> 100 µM (inactive)	> 100 µM (inactive)	> 100 µM (inactive)	> 100 µM (inactive)	> 100 µM (inactive)	> 100 µM (inactive)	> 100 µM (inactive)	> 100 µM (inactive)	> 100 µM (inactive)	> 100 µM (inactive)	> 100 µM (inactive)	> 100 µM (inactive)	> 100 µM (inactive)
COc1ccc(Cc2nc3cc([N+](=O)[O-])ccc3n2C[C@@H]2CCCN3CCCCC23)cc1 (stereo partly drawn)	31 µM (inactive)	18 µM (inactive)	20.9 µM (inactive)	19.8 µM (inactive)		19.7 µM (inactive)	29.8 µM (inactive)	45.7 µM (inactive)	4.01 µM (inactive)	15.8 µM (inactive)	12.6 µM (inactive)	40.7 µM (inactive)	25.2 µM (inactive)	8.3 µM (inactive)	20.9 µM (inactive)	13.7 µM (inactive)	17.7 µM (inactive)		16.7 µM (inactive)	18.7 µM (inactive)
CC1(C)CCCC(C)(C2CCC3(C)C2C(O)CC2C4(C)CCC(O)C(C)(C)C4CCC23C)O1 (stereo not drawn)	> 100 µM (inactive)	52.1 µM (inactive)		91.8 µM (inactive)		> 100 µM (inactive)	> 100 µM (inactive)	42.4 µM (inactive)	26.4 µM (inactive)	> 100 µM (inactive)	> 100 µM (inactive)	29.4 µM (inactive)	86.5 µM (inactive)	> 100 µM (inactive)	> 100 µM (inactive)	80.2 µM (inactive)	> 100 µM (inactive)	51.1 µM (inactive)	> 100 µM (inactive)	66.2 µM (inactive)
CCCCCCCCCCCCOc1ccc(/C=C/C2=[N+](CCCl)CCO2)cc1	97.1 µM (inactive)	45.8 µM (inactive)	19.4 µM (inactive)	21.3 µM (inactive)	20.1 µM (inactive)	> 100 µM (inactive)		56.4 µM (inactive)	12.8 µM (inactive)	63.2 µM (inactive)	39.1 µM (inactive)	45.5 µM (inactive)	47.6 µM (inactive)	47.3 µM (inactive)	24.3 µM (inactive)	> 100 µM (inactive)	75.9 µM (inactive)		17.7 µM (inactive)	41.7 µM (inactive)
Nc1nc(-c2ccccc2)nc2oc(-c3cccs3)nc12	> 100 µM (inactive)	> 100 µM (inactive)	> 100 µM (inactive)	> 100 µM (inactive)	> 100 µM (inactive)	> 100 µM (inactive)	> 100 µM (inactive)	> 100 µM (inactive)	> 100 µM (inactive)	> 100 µM (inactive)	> 100 µM (inactive)	> 100 µM (inactive)	> 100 µM (inactive)	> 100 µM (inactive)	> 100 µM (inactive)	> 100 µM (inactive)	> 10 µM (inactive)	> 100 µM (inactive)	> 100 µM (inactive)	
